Literature values, collected in article PMC9227077, “Prediction Models for Brain Distribution of Drugs Based on Biomimetic Chromatographic Data” (Molecules, 2022).
Read-outs that look alike come from different tables or passages of the source.

Key:
α1 acid glycoprotein = test system: α1 acid glycoprotein; parameters: method as in ref 23, 24, 27, 29, 45 (a number printed in a supplementary file, which may have a reference list of its own: not looked up in the article's list); conditions: pH=7.4, 100% aqueous mobile phase; previously obtained in authors' laboratory; cited from earlier work
[1] = experimental, cited from earlier work; for logP: octanol-water partition coefficient
[2] = parameters: method as in ref 23, 24, 27, 29, 45 (a number printed in a supplementary file, which may have a reference list of its own: not looked up in the article's list); conditions: 100% aqueous mobile phase, previously obtained in authors' laboratory, cited from earlier work
[3] = cited from earlier work
human serum albumin = test system: human serum albumin; parameters: method as in ref 45 (a number printed in a supplementary file, which may have a reference list of its own: not looked up in the article's list); conditions: cited from earlier work
[4] = most values in rats, average if more than one value; cited from earlier work
[5] = rat brain tissue; cited from earlier work
[6] = literature Kp,brain converted to logBB
[7] = total brain/total plasma, preferably rat studies
[8] = pH=7.4, isocratic, 10% acetonitrile, available for 37 compounds, remaining calculated by equation

Row | SMILES | logkwAGP (α1 acid glycoprotein) | logP [1] | logkw IAM ([2]; pH=5.0, PBS) | logkw IAM ([2]; pH=7.4, PBS) | logBB exper. [3, 6] | Kp,brain [3, 7] | logk10,HSA (human serum albumin; [8]) | fu,brain [4] | Kp,uu,brain [5] | logD ([1]; pH=5.0, octanol-water) | logD ([1]; pH=7.4, octanol-water) | Kp,brain ([3]; rat, in vivo) | logBB exper. ([3]; rat, in vivo) | logk10,HSA (human serum albumin)
1 | CNCCC(Oc1ccc(C(F)(F)F)cc1)c1ccccc1 (stereo not shown) [Fluoxetine] | 2.10 | 4.26 | 2.46 | 2.98 | 0.72 | 5.25 |  |  |  |  |  |  |  | 
2 | CN1C(=O)CN=C(c2ccccc2)c2cc(Cl)ccc21 [Diazepam] |  |  | 2.12 | 2.12 |  |  |  |  |  |  |  |  |  | 
3 | O=C(CCCN1CCC(O)(c2ccc(Cl)cc2)CC1)c1ccc(F)cc1 [Haloperidol] |  |  | 1.86 | 2.65 |  |  | 0.77 | 0.008 |  |  |  |  |  | 
4 | Cc1nc2n(c(=O)c1CCN1CCC(c3noc4cc(F)ccc34)CC1)CCCC2 [Risperidone] |  |  |  | 2.49 |  |  | 0.13 |  | 0.08 |  |  |  |  | 
5 | O=c1n(CCCN2CCN(c3cccc(Cl)c3)CC2)nc2ccccn12 [Trazodone] | 2.36 |  |  |  |  |  |  | 0.071 |  | 2.89 | 3.70 |  |  | 
6 | CCCC(C)C1(CC)C(=O)NC(=O)NC1=O (stereo not shown) [Pentobarbital] | 1.35 | 2.07 | 1.40 | 1.29 |  |  | -0.04 |  |  | 1.88 | 1.95 | 1.32 | 0.12 | 
7 | C=C[C@H]1C[N@@]2CC[C@H]1C[C@@H]2[C@@H](O)c1ccnc2ccc(OC)cc12 [Quinidine] | 1.71 |  |  | 2.34 |  |  |  |  | 0.03 |  |  |  |  | 0.29
8 | CN1C(=O)CN=C(c2ccccc2F)c2cc([N+](=O)[O-])ccc21 [Flunitrazepam] | 1.44 |  |  | 1.79 |  |  |  |  |  |  |  |  |  | 0.26
9 | CN1[C@@H]2C[C@@H](OC(=O)[C@H](CO)c3ccccc3)C[C@H]1[C@@H]1O[C@@H]12 [Scopolamine] |  |  | 0.73 | 1.15 |  |  |  |  |  |  |  |  |  | 
10 | CN1[C@@H]2CC[C@H]1C[C@@H](OC(=O)C(CO)c1ccccc1)C2 (stereo partly shown) [Atropine] |  |  |  | 1.05 |  |  |  |  |  |  |  |  |  | 
11 | Cc1cc(=O)n(-c2ccccc2)n1C [Antipyrine] | 0.88 |  |  | 0.45 |  | 0.80 |  | 0.862 | 0.71 |  |  |  |  | -1.04
12 | O=C1Nc2ccc(Cl)cc2C(c2ccccc2Cl)=NC1O (stereo not shown) [Lorazepam] | 1.33 |  | 2.01 | 2.03 | 0.47 | 2.95 | 0.67 |  |  |  |  |  |  | 
13 | CN(C)CCCN1c2ccccc2CCc2ccc(Cl)cc21 [Clomipramine] | 2.70 | 5.46 | 2.49 | 3.29 | 1.34 | 21.88 |  | 0.004 |  | 2.19 | 3.30 |  |  | 
14 | Cn1c(=O)c2c(ncn2C)n(C)c1=O [Caffeine] |  |  |  | 0.26 |  |  |  |  | 0.77 |  |  |  |  | 
15 | CC(C)NCC(O)COc1cccc2[nH]ccc12 (stereo not shown) [Pindolol] |  |  |  |  | -0.14 | 0.72 | -0.03 | 0.400 |  | -1.15 | -0.21 |  |  | 
16 | Cn1c(=O)c2[nH]cnc2n(C)c1=O [Theophylline] |  |  | -0.26 | -0.08 |  |  |  |  |  |  |  |  |  | 
17 | CC1COc2c(N3CCN(C)CC3)c(F)cc3c(=O)c(C(=O)O)cn1c23 (stereo not shown) [Ofloxacin] |  |  | 1.35 | 1.30 |  |  |  |  | 0.12 | -1.31 |  |  |  | -0.65
18 | CCC1(c2ccccc2)C(=O)NC(=O)NC1=O [Phenobarbital] | 1.10 |  | 0.71 | 0.28 |  |  | -0.22 |  |  | 1.47 | 1.14 | 0.72 | -0.14 | 
19 | CC(C)Cc1ccc(C(C)C(=O)O)cc1 (stereo not shown) [Ibuprofen] |  |  | 1.55 | 0.87 |  |  |  |  | 0.56 | 2.15 |  |  |  | 
20 | CNCCC=C1c2ccccc2CCc2ccccc21 [Nortriptyline] | 2.30 | 4.04 | 2.12 | 2.83 |  |  | 0.82 | 0.006 |  | 1.16 | 1.70 |  |  | 

Row | SMILES | logkwAGP (α1 acid glycoprotein) | logP [1] | logkw IAM ([2]; pH=5.0, PBS) | logkw IAM ([2]; pH=7.4, PBS) | logBB exper. [3, 6] | Kp,brain [3, 7] | logk10,HSA (human serum albumin; [8]) | fu,brain [4] | Kp,uu,brain [5] | logD ([1]; pH=5.0, octanol-water) | logD ([1]; pH=7.4, octanol-water) | Kp,brain ([3]; rat, in vivo) | logBB exper. ([3]; rat, in vivo) | logk10,HSA (human serum albumin)
21 | CC(C)=CCN1CCC2(C)c3cc(O)ccc3CC1C2C (stereo not shown) [Pentazocine] |  | 4.64 | 1.70 | 2.06 | 0.545 | 3.51 | 1.09 |  |  | 1.24 | 4.02 |  |  | 
22 | CC(CN1c2ccccc2Sc2ccccc21)N(C)C (stereo not shown) [Promethazine] | 2.50 |  | 2.18 | 2.78 | 0.824 | 6.67 | 1.05 |  |  | 1.59 | 2.79 |  |  | 
23 | CN1C(=O)C(O)N=C(c2ccccc2)c2cc(Cl)ccc21 (stereo not shown) [Temazapam] |  |  | 1.76 | 1.76 |  |  | 0.28 |  |  |  |  |  |  | 
24 | OCCN1CCN(CCCN2c3ccccc3Sc3ccc(Cl)cc32)CC1 [Perphenazine] | 3.19 | 4.20 |  | 3.67 |  |  | 1.24 | 0.004 |  | 1.61 | 3.65 |  |  | 
25 | CCOc1nc2cccc(C(=O)O)c2n1Cc1ccc(-c2ccccc2-c2nnn[nH]2)cc1 [Candesartan] | 0.09 | 3.36 | 1.57 | 1.00 | -1.4 | 0.04 | 0.42 |  |  | 1.00 | -1.35 |  |  | 
26 | COC(=O)[C@H]1[C@@H](OC(=O)c2ccccc2)C[C@@H]2CC[C@H]1N2C [Cocaine] |  | 3.01 |  | 1.90 |  |  | 0.33 |  | 0.37 | -0.96 | 1.07 | 3.98 | 0.6 | 
27 | COc1ccc2cc([C@H](C)C(=O)O)ccc2c1 [Naproxen] |  |  | 1.71 | 0.98 |  |  |  |  |  |  |  |  |  | 
28 | CN(C)CCCN1c2ccccc2CCc2ccccc21 [Imipramine] |  |  | 2.05 | 2.73 | 0.83 | 6.76 |  | 0.035 |  |  |  |  |  | 
29 | CN1CC[C@]23c4c5ccc(O)c4O[C@H]2[C@@H](O)C=C[C@H]3[C@H]1C5 [Morphine] |  |  | 0.10 | 0.63 |  |  |  |  |  |  |  |  |  | 
30 | CN(C)CCC=C1c2ccccc2COc2ccccc21 [Doxepin] | 2.30 | 3.96 | 1.98 | 2.50 |  |  | 0.56 |  |  | 0.86 | 2.22 |  |  | 
31 | OCCOCCN1CCN(C(c2ccccc2)c2ccc(Cl)cc2)CC1 (stereo not shown) [Hydroxyzine] |  |  | 2.23 | 3.01 | 0.39 | 2.45 | 0.60 | 0.013 |  | 0.73 | 3.01 |  |  | 
32 | CC(=O)Oc1ccccc1C(=O)O [Acetylsalicylic acid] |  |  | -0.48 | -0.81 | -0.5 | 0.32 | 0.38 |  |  | -0.29 | -1.20 |  |  | 
33 | CN(C)CCCN1c2ccccc2Sc2ccc(Cl)cc21 [Chlorpromazine] | 2.30 |  |  |  |  |  | 1.34 | 0.003 |  |  |  |  |  | 
34 | Nc1nc2c(ncn2COCCO)c(=O)[nH]1 [Acyclovir] |  | -1.56 | -1.37 | -1.15 |  |  |  |  |  | -1.56 | -1.56 |  |  | 
35 | CC(=O)[C@H]1CC[C@H]2[C@@H]3CCC4=CC(=O)CC[C@]4(C)[C@H]3CC[C@]12C [Progesterone] |  |  |  | 3.06 |  |  | 0.84 | 0.046 |  | 3.89 | 3.48 |  |  | 
36 | CNCCCC12CCC(c3ccccc31)c1ccccc12 [Maprotiline] |  | 4.14 | 2.25 | 2.81 | 1.76 | 57.54 | 0.80 | 0.006 |  | 1.19 | 1.44 |  |  | 
37 | NC(=O)CN1CCCC1=O [Piracetam] |  |  |  |  |  | 1.00 | -1.32 |  |  | -1.54 | -1.54 |  |  | 
38 | Cc1c(N(C)C)c(=O)n(-c2ccccc2)n1C [Aminopyrine] |  |  |  |  | 0.00 | 1.00 | -0.30 |  |  |  |  |  |  | 
39 | CC(C)NCC(O)COc1ccc(CC(N)=O)cc1 (stereo not shown) [Atenolol] |  |  | -0.20 | 0.51 |  |  |  |  |  |  |  |  |  | 
